Measured values reported in PMC7960626, “Phase I study assessing the mass balance, pharmacokinetics, and excretion of [^14C]-pevonedistat, a NEDD8-activating enzyme inhibitor in patients with advanced solid tumors” (Investigational New Drugs, 2020).

How the values were obtained:
[1] = Safety (TEAEs) of pevonedistat days 1, 3, 5 plus carboplatin/paclitaxel or docetaxel in 3-week cycles (part B); assay type: in vivo, human; conditions: for On-study deaths, patients: part B, Total (N = 7)
Protocol: (§1) This was a two-part (A and B), open-label, multicenter, mass balance, distribution, metabolism, excretion (DME) study in adult patients with advanced solid tumors. In part A, patients received a single IV infusion of [^14C]-pevonedistat 25 mg/m^2 (containing approximately 60–85 µCi, or 2.22–3.145 MBq, of total radioactivity) at a single center (Duna Medical Center, Budapest, Hungary). Patients were required to stay at the part A study site for approximately 8 days or until the discharge criteria were met, with a maximum estimated confinement period of 9–14 days. Upon completion of part A, patients had the option to participate in part B at Medical Center Hungarian Defense Forces, Budapest, Hungary. In part B, patients received treatment in 3-week cycles with either: pevonedistat 20 mg/m^2 on days 1, 3, and 5 plus carboplatin AUC5 and paclitaxel 175 mg/m^2 on day 1; or pevonedistat 25 mg/m^2 on days 1, 3, and 5 plus docetaxel 75 mg/m^2 on day 1. Treatment was administered for 12 cycles or until discontinuation criteria were met.
(§2) Blood samples were collected for total radioactivity and PK assessments in whole blood and plasma at prespecified time points (pre dose [within 1 h before the start of the pevonedistat infusion], end of infusion, then 0.5, 1, 2, 3, 4, 8, 12, 24, 48, 72, 96, 120, 144 and 168 hours post dose). Complete urinary and fecal output were collected for analysis of PK (urine) and total radioactivity (urine and feces) throughout the confinement period until discharge criteria were met. Bioanalytical assay methods are shown in the Supplementary Methods. Safety was assessed by incidence and severity of TEAEs, vital signs, physical examinations, electrocardiograms, and clinical laboratory tests, and toxicities were graded according to the National Cancer Institute Common Terminology Criteria for Adverse Events (NCI CTCAE), version 4.03. In part B, disease assessments were conducted using radiological evaluations (computed tomography [CT] scan or magnetic resonance imaging [MRI], as clinically indicated).
PK data were summarized using descriptive statistics, and the PK and mass balance parameters described in Supplementary Table S1 were calculated by non-compartmental analysis for each individual patient. Safety was assessed in all patients who received at least one dose of pevonedistat, and TEAEs were coded according to the Medical Dictionary for Regulatory Activities (MedDRA), version 20.0. Analysis of efficacy in part B was descriptive; disease response was assessed in all patients who received at least one dose of pevonedistat, had measurable disease (per entry criteria for part B), and had at least one post-baseline disease assessment. Response assessment was done by the investigator using Response Evaluation Criteria in Solid Tumors (RECIST) version 1.1. SAS version 9.4 was used for all statistical analyses.

advanced solid tumors = experiment: Disease response by RECIST version 1.1 (part B); assay type: in vivo, human; conditions: 7 patients evaluable, with carboplatin/paclitaxel or docetaxel
Protocol: as §1
as §2, with “In part B, disease assessments were conducted using radiological evaluations (computed tomography [CT] scan or magnetic resonance imaging [MRI], as clinically indicated).” left out
PK data were summarized using descriptive statistics, and the PK and mass balance parameters described in Supplementary Table S1 were calculated by non-compartmental analysis for each individual patient. […]

[2] = test system: tumor cell lines including solid tumors (colon, lung) and hematological malignancies (myeloma, lymphoma); set-up: method as in PMID 19509147, PMID 20525923, PMID 20203261; conditions: preclinical studies; cited from earlier work
[3] = human, in vivo, 12 3-week cycles

NS(=O)(=O)OC[C@@H]1C[C@@H](n2ccc3c(N[C@H]4CCc5ccccc54)ncnc32)C[C@@H]1O [Pevonedistat]
Abdominal distension, All Grades ([1]; human, in vivo): 1 (14.3) n (%)
Abdominal distension, Grade ≥ 3 ([1]; human, in vivo): 0 n (%)
Abdominal pain upper, All Grades ([1]; human, in vivo): 1 (14.3) n (%)
Abdominal pain upper, Grade ≥ 3 ([1]; human, in vivo): 0 n (%)
Abdominal pain, All Grades ([1]; human, in vivo): 1 (14.3) n (%)
Abdominal pain, Grade ≥ 3 ([1]; human, in vivo): 0 n (%)
Alopecia, All Grades ([1]; human, in vivo): 1 (14.3) n (%)
Alopecia, Grade ≥ 3 ([1]; human, in vivo): 0 n (%)
Arthralgia, All Grades ([1]; human, in vivo): 1 (14.3) n (%)
Arthralgia, Grade ≥ 3 ([1]; human, in vivo): 0 n (%)
Asthenia, All Grades ([1]; human, in vivo): 3 patients (42.9%) n (%)
Back pain, All Grades ([1]; human, in vivo): 1 (14.3) n (%)
Back pain, Grade ≥ 3 ([1]; human, in vivo): 0 n (%)
Blood bilirubin increased, All Grades ([1]; human, in vivo): 1 (14.3) n (%)
Blood bilirubin increased, Grade ≥ 3 ([1]; human, in vivo): 0 n (%)
Blood creatinine increased, All Grades ([1]; human, in vivo): 1 (14.3) n (%)
Blood creatinine increased, Grade ≥ 3 ([1]; human, in vivo): 0 n (%)
Blood urea increased, All Grades ([1]; human, in vivo): 1 (14.3) n (%)
Blood urea increased, Grade ≥ 3 ([1]; human, in vivo): 0 n (%)
Bone pain, All Grades ([1]; human, in vivo): 1 (14.3) n (%)
Bone pain, Grade ≥ 3 ([1]; human, in vivo): 0 n (%)
Chest pain, All Grades ([1]; human, in vivo): 1 (14.3) n (%)
Chest pain, Grade ≥ 3 ([1]; human, in vivo): 0 n (%)
Chills, All Grades ([1]; human, in vivo): 1 (14.3) n (%)
Chills, Grade ≥ 3 ([1]; human, in vivo): 0 n (%)
Conjunctival hemorrhage, All Grades ([1]; human, in vivo): 1 (14.3) n (%)
Conjunctival hemorrhage, Grade ≥ 3 ([1]; human, in vivo): 0 n (%)
Diarrhea, All Grades ([1]; human, in vivo): 3 patients (42.9%) n (%)
Dyspnea, All Grades ([1]; human, in vivo): 1 (14.3) n (%)
Dyspnea, Grade ≥ 3 ([1]; human, in vivo): 0 n (%)
Edema peripheral, All Grades ([1]; human, in vivo): 1 (14.3) n (%)
Edema peripheral, Grade ≥ 3 ([1]; human, in vivo): 0 n (%)
Fibrosarcoma, All Grades ([1]; human, in vivo): 1 (14.3) n (%)
Fibrosarcoma, Grade ≥ 3 ([1]; human, in vivo): 1 (14.3) n (%)
General physical health deterioration, All Grades ([1]; human, in vivo): 1 (14.3) n (%)
General physical health deterioration, Grade ≥ 3 ([1]; human, in vivo): 1 (14.3) n (%)
Grade ≥ 3 drug-related decreased platelet count ([1]; human, in vivo): 1 patient
Grade ≥ 3 drug-related increased ALT and AST ([1]; human, in vivo): 1 patient
Leukocytosis, All Grades ([1]; human, in vivo): 1 (14.3) n (%)
Leukocytosis, Grade ≥ 3 ([1]; human, in vivo): 0 n (%)
Leukopenia, All Grades ([1]; human, in vivo): 1 (14.3) n (%)
Leukopenia, Grade ≥ 3 ([1]; human, in vivo): 0 n (%)
Mueller’s mixed tumor, All Grades ([1]; human, in vivo): 1 (14.3) n (%)
Mueller’s mixed tumor, Grade ≥ 3 ([1]; human, in vivo): 0 n (%)
Nausea, All Grades ([1]; human, in vivo): 3 patients (42.9%) n (%)
Pain, Grade ≥ 3 ([1]; human, in vivo): 0 n (%)
Peripheral venous disease, All Grades ([1]; human, in vivo): 1 (14.3) n (%)
Peripheral venous disease, Grade ≥ 3 ([1]; human, in vivo): 0 n (%)
Platelet count decreased, All Grades ([1]; human, in vivo): 1 (14.3) n (%)
Platelet count decreased, Grade ≥ 3 ([1]; human, in vivo): 1 (14.3) n (%)
Pneumonia, All Grades ([1]; human, in vivo): 1 (14.3) n (%)
Pneumonia, Grade ≥ 3 ([1]; human, in vivo): 1 (14.3) n (%)
Pyrexia, All Grades ([1]; human, in vivo): 2 (28.6) n (%)
Pyrexia, Grade ≥ 3 ([1]; human, in vivo): 0 n (%)
Rash, All Grades ([1]; human, in vivo): 1 (14.3) n (%)
Rash, Grade ≥ 3 ([1]; human, in vivo): 0 n (%)
Serious TEAEs, patients ([1]; human, in vivo): Three patients (42.9%) n (%)
Spinal compression fracture, All Grades ([1]; human, in vivo): 1 (14.3) n (%)
Spinal compression fracture, Grade ≥ 3 ([1]; human, in vivo): 0 n (%)
Swelling, All Grades ([1]; human, in vivo): 1 (14.3) n (%)
Swelling, Grade ≥ 3 ([1]; human, in vivo): 0 n (%)
TEAEs, patients ([1]; human, in vivo): 7 n (%)
TEAEs: Drug-related (any drug of the combination), patients ([1]; human, in vivo): 6 patients (85.7%) n (%)
TEAEs: Grade ≥ 3, patients ([1]; human, in vivo): Four patients (57.1%) n (%)
TEAEs: Grade ≥ 3 drug-related, patients ([1]; human, in vivo): 2 n (%)
Upper respiratory tract infection, All Grades ([1]; human, in vivo): 1 (14.3) n (%)
Upper respiratory tract infection, Grade ≥ 3 ([1]; human, in vivo): 0 n (%)
Vomiting, All Grades ([1]; human, in vivo): 4 patients (57.1%) n (%)
Weight decreased, All Grades ([1]; human, in vivo): 1 (14.3) n (%)
Weight decreased, Grade ≥ 3 ([1]; human, in vivo): 0 n (%)
ALT increased, All Grades [1, 3]: 2 (28.6) n (%)
ALT increased, Grade ≥ 3 [1, 3]: 1 (14.3) n (%)
AST increased, All Grades [1, 3]: 2 (28.6) n (%)
AST increased, Grade ≥ 3 [1, 3]: 1 (14.3) n (%)
Anemia, All Grades [1, 3]: 2 (28.6) n (%)
Anemia, Grade ≥ 3 [1, 3]: 0 n (%)
Asthenia, All Grades [1, 3]: 3 (42.9) n (%)
Asthenia, Grade ≥ 3 [1, 3]: 0 n (%)
Diarrhea, All Grades [1, 3]: 3 (42.9) n (%)
Diarrhea, Grade ≥ 3 [1, 3]: 0 n (%)
Fatigue, All Grades [1, 3]: 2 (28.6) n (%)
Fatigue, Grade ≥ 3 [1, 3]: 0 n (%)
Nausea, All Grades [1, 3]: 3 (42.9) n (%)
Nausea, Grade ≥ 3 [1, 3]: 0 n (%)
Pain, All Grades [1, 3]: 2 (28.6) n (%)
Serious TEAEs, patients [1, 3]: 3 (42.9) n (%)
Serious TEAEs: Drug-related, patients [1, 3]: 0 n (%)
Serious TEAEs: Resulting in study discontinuation, patients [1, 3]: 1 (14.3) n (%)
TEAEs, patients [1, 3]: 7 (100.0) n (%)
TEAEs: Drug-related (any drug of the combination), patients [1, 3]: 6 (85.7) n (%)
TEAEs: Grade ≥ 3, patients [1, 3]: 4 (57.1) n (%)
TEAEs: Grade ≥ 3 drug-related, patients [1, 3]: 2 (28.6) n (%)
TEAEs: Resulting in study drug discontinuation, patients [1, 3]: 1 (14.3) n (%)
Thrombocytopenia, All Grades [1, 3]: 2 (28.6) n (%)
Thrombocytopenia, Grade ≥ 3 [1, 3]: 0 n (%)
Vomiting, All Grades [1, 3]: 4 (57.1) n (%)
Vomiting, Grade ≥ 3 [1, 3]: 0 n (%)
Oral herpes, All Grades ([1]; human, in vivo, po): 1 (14.3) n (%)
Oral herpes, Grade ≥ 3 ([1]; human, in vivo, po): 0 n (%)
Serious TEAEs: Drug-related, patients ([1]; in vivo): none of which were considered related to treatment
On-study deaths, patients [1]: 2 (28.6) n (%)
On-study deaths, patients ([1]; listed as pevonedistat): Two
best response of partial response (advanced solid tumors): One
best response of stable disease (advanced solid tumors): 5 patients
progressive disease (advanced solid tumors): remaining patient
antitumor activity in cell lines [2]: growth inhibition
